From article PMC11475281, “A Novel Liver Cancer-Selective Histone Deacetylase Inhibitor Is Effective against Hepatocellular Carcinoma and Induces Durable Responses with Immunotherapy” (ACS Pharmacology & Translational Science, 2024)

Assays:
[1] = GLUT-2 uptake experiment (phloretin blockade, MTS); type: cell-based; conditions: African green monkey, VERO cells, No addition of Ph, read-out: VERO Cell Viability %
Method: (§1) We observed that Ph selectively mitigated the cytotoxicity of STR-V-53 against the Hep-G2 cell line with no apparent effect on the cytotoxicity of SAHA (Figure 2a). […] This matches our expectation because Hep-G2 cells overexpress GLUT-2 while VERO has limited expression of GLUT-2.[26] […]
(§2) Hep-G2 or VERO cells were seeded (2500 to 4,000 counts/well) into 96-well plates, in which each well contains 100 µL media. The cells were cultured overnight in the respective media described in the cell culture section above. On day 2, the cells were treated with 25 µM Phloretin for 24 h. On day 3, 200x stock solutions of STR-V-53 and SAHA were used to prepare 2x treatment solution by adding 1% stock solution in the media. Then, without removal of the media in 96-well plates, the same volumes of drug as the media were added directly to the wells with gentle pipetting to reach 1x drug solution with 25 µM Ph. After another 72 h, the media were removed, and new media (100 µL) added to the wells. MTS solution (20 µL) was added to each well. After 2.5-4 h incubation, the plates were read using a multiplate reader at 490 nm. The data were processed using GraphPad Prism 8. […]

GLUT-2 = GLUT-2 uptake experiment (phloretin blockade, MTS); type: cell-based; conditions: African green monkey, VERO cells, with phloretin 25 µM, Pre-treated with 25 μM Ph, read-out: VERO Cell Viability %
Method: as §1, §2

Hep-G2 cells [2] = assay: Immunoblotting of PD-L1 and PD-1 expression; type: cell-based, human; conditions: 24 h, SAHA 5 and 10 μM, STR-V-53 10 and 20 μM
Method: Figure 3 Effects of STR-V-53 on intracellular markers of HDAC inhibition, antitumor immune response, and apoptosis. (a) STR-V-53 upregulates the levels of acetylated H4 and tubulin in Hep-G2 cells. Hep-G2 cells were treated with DMSO or 0.1% DMSO solution of SAHA (1.25 μM) and STR-V-53 (1.25 μM, 2.5 μM). Cells were treated for 5 h before lysis. Data are from two independent experiments. (b) STR-V-53 upregulates PD-L1 and downregulates PD-1 expressions in Hep-G2 cells. Cells were treated with DMSO or 0.1% DMSO solution of SAHA (5 μM and 10 μM) and STR-V-53 (10 and 20 μM) for 24 h. (c) STR-V-53 and SAHA caused upregulation of the levels of CD54 in the Hep-G2 cell line. Cells were treated with DMSO or 0.1% DMSO solution of SAHA (5 and 10 μM) and STR-V-53 (5, 10, and 20 μM) for 24 h. […] Cells were treated with DMSO or 0.1% DMSO solution of SAHA (5 μM) and STR-V-53 (10 and 20 μM).
One of the consequences of histone deacetylase inhibition is the alteration of tumor immunogenicity in favor of enhanced antitumor immune responses.[28],[29] Specifically, HDACi robustly upregulates PD-L1 in human and murine cell lines and patient tumors.[30],[31] To investigate the effects of our glycosylated HDACi on immune checkpoint molecules, we used immunoblotting to probe for the expression levels of PD-L1 and PD-1 in Hep-G2 cells incubated with lead compound STR-V-53 for 24 h. We used SAHA and DMSO as positive and negative controls, respectively.

Hep-G2 cells [3] = assay: RNA-seq gene set enrichment analysis (Hallmark and GOBP GSEA); type: cell-based, human; conditions: 24 h
Method: To obtain transcriptome level evidence that may shed light on the HCC-selectivity and/or the enhanced potency of the combination of STR-V-53 with anti-PD-1 antibody, we performed RNA sequencing (RNA-seq) analysis on STR-V-53-treated Hep-G2 cells, incubated at IC50 and 2× IC50 for 24 h, relative to the untreated (DMSO) control. We first conducted gene set enrichment analysis (GSEA) using hallmark and gene ontology biological process (GOBP) gene sets to analyze the effect of STR-V-53 vs DMSO-treated control on the Hep-G2 transcriptome.[42],[43] […] Negative enrichment of the G2 M checkpoint pathway supports the finding that STR-V-53 induced S phase arrest in Hep-G2 cells (see Figure 4). […]
and allowed to grow for 48 hours.
RCF, with this washing step repeated twice. Next, using RNeasy Plus Mini Kit and Qiagen QIAcube […]
determined using a DeNovix spectrophotometer. Subsequently, quality control of the RNA samples was […]
(base call error rate of […]).
FASTQ files of samples were analyzed through the RNA-seq pipeline provided by the Gryder lab1. Reads were aligned to hg38 using STAR version 2.5.3a, and gene expression was calculated as Transcripts per Million mapped reads (TPM) using RSEM version 1.3.3 and filtered for coding genes. Differentially expressed genes lists were generated for each sample by calculating log2 fold change of the averaged sample TPM versus the averaged DMSO-treated control cells TPM and filtering for genes with |log2 fold change| > -1 and false discovery rate < 0.25. Hallmark2 and gene ontology biological processes (GOBP)3 gene set enrichment analysis (GSEA) was performed on the differentially expressed gene lists using the GSEA software (parameters: Run GSEAPreranked, Collapse/Remap- No_Collapse)4. GSEA results were interpreted and visualized using scripts provided by the Gryder lab1.Volcano plots were generated using DESeq2v1.41.1 and visualized with the ggplot2 R packages5,6. […]

Text for RIL-175 murine HCC: (d) Body weight change of tumor-bearing mice in the four treatment groups.
Next, we evaluated the in vivo efficacy of STR-V-53 alone or combined with an anti-PD1
antibody in a p53-null murine HCC model.
into the subcapsular region of the liver parenchyma in C57Bl/6 mice, and tumor growth was
monitored by high-frequency ultrasonography. When tumors reached ~5 mm in diameter, mice
were randomly assigned to one of the four treatment groups (n=12 mice): DMA/ CRH/Water
(10%/20%/70%) (control), STR-V-53 (25mg/kg daily by i.p. for 3 weeks), anti-PD1 antibody
(10mg/kg thrice a week for 3 weeks), or combination of STR-V-53 and anti-PD1 antibody. Anti-
PD1 antibody treatment was administered i.p. for a total of 9 injections. Tumor growth and body
weight were measured every three days by ultrasound imaging, and tumor size was calculated as
0.5×length×width2. Per protocol, moribund status was used as the endpoint, and moribundity
the starting date, body condition score of more than 2, and tumor size of more than 15 mm in
diameter. Data were processed using GraphPad Prism 8, and survival analysis was performed

SMILES: O=C(CCCCCCC(=O)Nc1ccccc1)NO [SAHA, vorinostat, reference compound]
- viability at 72 h, 6.5 µM ([1]; 6.5 μM): 97.7%
- viability at 72 h, 12.5 µM ([1]; 12.5 μM): 17.1%
- viability at 72 h, 6.5 µM (GLUT-2; 6.5 μM): 87.2%
- viability at 72 h, 12.5 µM (GLUT-2; 12.5 μM): 7.5%
- PD-1 expression level (Hep-G2 cells [2]): downregulate
- PD-L1 expression level (Hep-G2 cells [2]): upregulate

SMILES: O=C(CCCCCCn1cc(-c2ccc(O[C@H]3O[C@H](CO)[C@@H](O)[C@H](O)[C@H]3O)cc2)nn1)NO [STR-V-53]
- NES, G2/M checkpoint (Hallmark GSEA) (Hep-G2 cells [3]; 2× IC50 (20 μM)): −2.2
- NES, MYC targets v1 (Hallmark GSEA) (Hep-G2 cells [3]; 2× IC50 (20 μM)): −2.3
- NES, MYC targets v2 (Hallmark GSEA) (Hep-G2 cells [3]; 2× IC50 (20 μM)): −2.6
- NES, PI3K/Akt/mTOR signaling (Hallmark GSEA) (Hep-G2 cells [3]; 2× IC50 (20 μM)): −1.7
- NES, antimicrobial humoral immune response mediated by an antimicrobial peptide (GOBP GSEA) (Hep-G2 cells [3]; 2× IC50 (20 μM)): 1.9
- NES, cytokine-mediated signaling pathway (GOBP GSEA) (Hep-G2 cells [3]; 2× IC50 (20 μM)): −1.4
- NES, glucose-regulated transcription genes (GOBP GSEA) (Hep-G2 cells [3]; 2× IC50 (20 μM)): −1.8
- NES, humoral immune response (GOBP GSEA) (Hep-G2 cells [3]; 2× IC50 (20 μM)): 1.7
- NES, innate immune response in the mucosa (GOBP GSEA) (Hep-G2 cells [3]; 2× IC50 (20 μM)): 2.3
- NES, p53 pathway (Hallmark GSEA) (Hep-G2 cells [3]; 2× IC50 (20 μM)): 1.6
- NES, positive regulation of glucose import (GOBP GSEA) (Hep-G2 cells [3]; 2× IC50 (20 μM)): −1.6
- NES, G2/M checkpoint (Hallmark GSEA) (Hep-G2 cells [3]; IC50 (10 μM)): −2.9
- NES, MYC targets v1 (Hallmark GSEA) (Hep-G2 cells [3]; IC50 (10 μM)): −2.6
- NES, MYC targets v2 (Hallmark GSEA) (Hep-G2 cells [3]; IC50 (10 μM)): −2.3
- NES, antimicrobial humoral immune response mediated by an antimicrobial peptide (GOBP GSEA) (Hep-G2 cells [3]; IC50 (10 μM)): 1.9
- NES, glucose-regulated transcription genes (GOBP GSEA) (Hep-G2 cells [3]; IC50 (10 μM)): −1.8
- NES, humoral immune response (GOBP GSEA) (Hep-G2 cells [3]; IC50 (10 μM)): 1.9
- NES, innate immune response in the mucosa (GOBP GSEA) (Hep-G2 cells [3]; IC50 (10 μM)): 2.1
- viability at 72 h, 75 µM ([1]; 75μM): 98.4%
- viability at 72 h, 100 µM ([1]; 100μM): 77.8%
- viability at 72 h, 75 µM (GLUT-2; 75μM): 100%
- viability at 72 h, 100 µM (GLUT-2; 100μM): 75.9%
- PD-1 expression level (Hep-G2 cells [2]): downregulate
- PD-L1 expression level (Hep-G2 cells [2]): upregulate
- Body weight change of tumor-bearing mice (weight loss) (RIL-175 murine HCC; RIL-175 model, 12 mice per group): 4/12
- Tumor growth (RIL-175 murine HCC; RIL-175 model, n = 12): minor effect on tumor growth
- Overall survival (Kaplan–Meier) (RIL-175 murine HCC; RIL-175 model, n = 12, vs IgG control): no impact on survival
- Overt toxicity during the treatment period (RIL-175 murine HCC; RIL-175 tumor-bearing mice): no significant overt toxicity
